How the values were obtained:
circulating lymphocytes = test: Assessment of in vivo efficacy: circulating lymphocytes after oral administration to Wistar rats; design: species or system rat; details: Rattus norvegicus, Lymphocyte, normotensive male Wistar rats, compared to vehicle group, read-out: Lymphocyte counts; for change in vivo at 10 mg/kg: 6 h after oral administration of 10 mg/kg
Experimental: Assessment of In Vivo Efficacy
The efficacy of the compounds of Formula (I) is assessed by measuring the circulating lymphocytes after oral administration of 3 to 30 mg/kg of a compound of Formula (I) to normotensive male Wistar rats. The animals are housed in climate-controlled conditions with a 12 h-light/dark cycle, and have free access to normal rat chow and drinking water. […] Full blood is subjected to hematology using Advia Hematology system (Bayer Diagnostics, Zurich, Switzerland).
All data are presented as mean±SEM. Statistical analyses are performed by analysis of variance (ANOVA) using Statistica (StatSoft) and the Student-Newman-Keuls procedure for multiple comparisons. The null hypothesis is rejected when p<0.05.

[1] = molecular target: T1, human S1P1 (EDG1) receptor (Homo sapiens, UniProt P21453); test: S1P1 β-arrestin recruitment (Tango) assay to determine EC50 values; format: cell-based; details: Tango-EDG1 bla U2OS cells, 16 h incubation
T1 construct: host or cells: U2OS (Tango EDG1-bla U2OS)
T1 sequence (P21453 whole entry): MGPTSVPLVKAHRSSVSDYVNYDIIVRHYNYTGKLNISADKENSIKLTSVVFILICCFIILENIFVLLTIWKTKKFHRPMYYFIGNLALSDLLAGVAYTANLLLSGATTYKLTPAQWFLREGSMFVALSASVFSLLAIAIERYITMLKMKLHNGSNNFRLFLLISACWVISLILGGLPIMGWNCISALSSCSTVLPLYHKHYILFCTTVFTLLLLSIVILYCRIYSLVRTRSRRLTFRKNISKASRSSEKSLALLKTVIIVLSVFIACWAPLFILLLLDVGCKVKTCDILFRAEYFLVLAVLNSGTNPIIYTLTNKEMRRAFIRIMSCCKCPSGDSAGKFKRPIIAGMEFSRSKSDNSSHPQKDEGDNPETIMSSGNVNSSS
Excerpt: S1P1 β-Arrestin Recruitment (Tango) Assay to Determine EC50 Values
Upon ligand activation, G protein-coupled receptors (GPCR) trigger two pathways that independently transduce signals to the cell: one through heterotrimeric GTP-binding proteins (G proteins) and one through β-arrestins. Agonist-induced GPCRs recruit β-arrestin proteins, which then bind to the carboxy-terminal domain of ligand-activated GPCRs. The amount of β-arrestin recruitment can be used to assess the potency and efficacy of GPCR activating ligands.
To measure the potency and efficacy of compounds as S1P1 (EDG1) receptor agonists, Tango™-EDG1 bla U2OS cells (Invitrogen, USA, Catalog #K1520) are used. The Tango™ GPCR technology is based on GeneBLAzer β-lactamase reporter cell assays, which uses a mammalian-optimized β-lactamase reporter gene (bla) combined with a FRET-enabled substrate. The host cells, U2OS, stably express a human S1P1 (EDG1) receptor/transcription factor (TF) fusion protein. The cells also express a recombinant protease tagged β-arrestin protein, which is recruited to the S1P1 receptor upon ligand stimulation and specifically cleaves the S1P1-TF fusion protein. The released TF activates the β-lactamase (bla) reporter gene. To measure the reporter gene activity, cells are loaded with a fluorescent substrate containing two chemically coupled fluorophores, coumarin and fluorescein. […] In the presence of bla, the chemical bond is cleaved and FRET is inhibited. […] The amount of β-arrestin recruitment is proportional to the increase in blue fluorescence.
Tango™-EDG1 bla U2OS cells are cultivated in McCoy's 5A containing 10% dialyzed FBS, 0.1 mM NEAA, 25 mM HEPES, 1 mM sodium pyruvate, 1% Penicillin/Streptomycin, 200 μg/ml zeocin, 50 μg/ml hygromycin and 100 μg/ml geneticin (Invitrogen, USA). Cells are detached with trypsin, resuspended in medium and then counted.
Compounds (10 mM stock in DMSO) are diluted first in DMSO. The pre-diluted compounds solutions are then transferred into Assay Medium/0.1% fatty acid free BSA to reach a fourfold concentrated compound stock, which is applied to the cells to reach the final compound concentrations that range from 10 μM to 0.0005 nM (0.5% final DMSO). Cells are then incubated for 16 h at 37° C. and 5% CO2.

| EC50 [1] | Structure (SMILES) | change in vivo at 10 mg/kg (circulating lymphocytes) | change in vivo at 3 mg/kg (circulating lymphocytes; 6 h after an oral dose of 3 mg/kg) |
| --- | --- | --- | --- |
| 0.4 nM | COc1cc(-c2nc(-c3cc(C)c(OCC(=O)NCCO)c(Cl)c3)no2)cc(C2CCCC2)n1 [Example 42, 2-(2-Chloro-4-(5-(2-cyclopentyl-6-methoxypyridin-4-yl)-1,2,4-oxadiazol-3-yl)-6-methyl-phenoxy)-N-(2-hydroxyethyl)acetamide] | -75% | – |
| 0.05 nM | COc1cc(-c2nc(-c3cc(C)c(OCCCC(=O)O)c(Cl)c3)no2)cc(C2CCCC2)n1 [Example 40, 4-(2-Chloro-4-(5-(2-cyclopentyl-6-methoxypyridin-4-yl)-1,2,4-oxadiazol-3-yl)-6-methylphenoxy)butanoic acid] | -65% | – |
| 1.5 nM | CCc1cc(-c2noc(-c3cc(OC)nc(C4CCCC4)c3)n2)cc(C)c1OCCCN(C)CC(=O)O [Example 20, 2-((3-(4-(5-(2-Cyclopentyl-6-methoxypyridin-4-yl)-1,2,4-oxadiazol-3-yl)-2-ethyl-6-methylphenoxy)propyl)(methyl)amino)acetic acid] | -57% | – |
| 0.2 nM | CCc1cc(-c2noc(-c3cc(OC)nc(C4CCCC4)c3)n2)cc(C)c1OCCN(C)CCC(=O)O [Example 17, 3-((2-(4-(5-(2-Cyclopentyl-6-methoxypyridin-4-yl)-1,2,4-oxadiazol-3-yl)-2-ethyl-6-methylphenoxy)ethyl)(methyl)amino)propanoic acid] | – | – |
| 1.1 nM | CCc1cc(-c2nnc(-c3cc(OC)nc(C4CCCC4)c3)o2)cc(C)c1OCCN1CC(C(=O)O)C1 [Example 63, 1-(2-(4-(5-(2-Cyclopentyl-6-methoxypyridin-4-yl)-1,3,4-oxadiazol-2-yl)-2-ethyl-6-methylphenoxy)ethyl)azetidine-3-carboxylic acid] | -71% | – |
| 3 nM | CCc1cc(-c2nnc(-c3cc(OC)nc(C4CCCC4)c3)o2)cc(C)c1OC[C@@H](O)CNCCO [Example 64, (S)-1-(4-(5-(2-Cyclopentyl-6-methoxypyridin-4-yl)-1,3,4-oxadiazol-2-yl)-2-ethyl-6-methylphenoxy)-3-((2-hydroxyethyl)amino)propan-2-ol] | – | – |
| 1.8 nM | CCc1cc(-c2noc(-c3cc(OC)nc(C4CCCC4)c3)n2)cc(C)c1OCCCC(=O)NCCO [Example 46, 4-(4-(5-(2-Cyclopentyl-6-methoxypyridin-4-yl)-1,2,4-oxadiazol-3-yl)-2-ethyl-6-methylphenoxy)-N-(2-hydroxyethyl)butanamide] | – | – |
| 1.7 nM | COc1cc(-c2nc(-c3cc(Cl)c(OCCCC(=O)NCCO)c(OC)c3)no2)cc(C2CCCC2)n1 [Example 36, 4-(2-Chloro-4-(5-(2-cyclopentyl-6-methoxypyridin-4-yl)-1,2,4-oxadiazol-3-yl)-6-methoxyphenoxy)-N-(2-hydroxyethyl)butanamide] | -73% | – |
| 69 nM | CCc1cc(-c2noc(-c3cc(OC)nc(C4CCCC4)c3)n2)cc(C)c1OCCCNCCO [Example 24, 2-((3-(4-(5-(2-Cyclopentyl-6-methoxypyridin-4-yl)-1,2,4-oxadiazol-3-yl)-2-ethyl-6-methylphenoxy)propyl)amino)ethanol] | – | – |
| 0.05 nM | CCc1cc(-c2noc(-c3cc(OC)nc(C4CCCC4)c3)n2)cc(C)c1OCCNC(=O)CC(=O)O [Example 49, 3-((2-(4-(5-(2-Cyclopentyl-6-methoxypyridin-4-yl)-1,2,4-oxadiazol-3-yl)-2-ethyl-6-methylphenoxy)ethyl)amino)-3-oxopropanoic acid] | – | -49% |
| 0.02 nM | CCc1cc(-c2noc(-c3cc(OC)nc(C4CCCC4)c3)n2)cc(C)c1OC[C@@H](O)CNC(=O)CCC(=O)O [Example 15, (S)-4-((3-(4-(5-(2-Cyclopentyl-6-methoxypyridin-4-yl)-1,2,4-oxadiazol-3-yl)-2-ethyl-6-methylphenoxy)-2-hydroxypropyl)amino)-4-oxobutanoic acid] | -55% | – |
| 0.05 nM | CCc1cc(-c2nnc(-c3cc(OC)nc(C4CCCC4)c3)o2)cc(C)c1OC[C@@H](O)CNC(=O)CCC(=O)O [Example 66] | – | – |
| 0.1 nM | CCc1cc(-c2nc(-c3cc(OC)nc(C4CCCC4)c3)no2)cc(C)c1OCCNCC(=O)O [Example 55, 2-((2-(4-(3-(2-Cyclopentyl-6-methoxypyridin-4-yl)-1,2,4-oxadiazol-5-yl)-2-ethyl-6-methylphenoxy)ethyl)amino)acetic acid] | -72% | – |
| 25.6 nM | CCc1cc(-c2noc(-c3cc(OC)nc(C4CCCC4)c3)n2)cc(C)c1OCCCNCC(O)CO (racemic) [Example 28, rac-3-((3-(4-(5-(2-Cyclopentyl-6-methoxypyridin-4-yl)-1,2,4-oxadiazol-3-yl)-2-ethyl-6-methylphenoxy)propyl)amino)propane-1,2-diol] | – | – |
| 2.7 nM | CCc1cc(-c2nc(-c3cc(OC)nc(C4CCCC4)c3)no2)cc(C)c1OCCCNCC(=O)O [Example 59, 2-((3-(4-(3-(2-Cyclopentyl-6-methoxypyridin-4-yl)-1,2,4-oxadiazol-5-yl)-2-ethyl-6-methylphenoxy)propyl)amino)acetic acid] | -82% | – |
| 0.2 nM | CCc1cc(-c2nc(-c3cc(OC)nc(C4CCCC4)c3)no2)cc(C)c1OCCN1CC(C(=O)O)C1 [Example 58, 1-(2-(4-(3-(2-Cyclopentyl-6-methoxypyridin-4-yl)-1,2,4-oxadiazol-5-yl)-2-ethyl-6-methylphenoxy)ethyl)azetidine-3-carboxylic acid] | – | – |
| 2.95 nM | CCc1cc(-c2noc(-c3cc(OC)nc(C4CCCC4)c3)n2)cc(C)c1OCCCN1CC(C(=O)O)C1 [Example 22, 1-(3-(4-(5-(2-Cyclopentyl-6-methoxypyridin-4-yl)-1,2,4-oxadiazol-3-yl)-2-ethyl-6-methylphenoxy)propyl)azetidine-3-carboxylic acid] | – | – |
| 0.7 nM | CCc1cc(-c2nnc(-c3cc(OC)nc(C4CCCC4)c3)o2)cc(C)c1OC[C@@H](O)CNC(CO)CO [Example 65] | – | – |
| 0.03 nM | CCc1cc(-c2noc(-c3cc(OC)nc(C4CCCC4)c3)n2)cc(C)c1OC[C@@H](O)CNC(=O)CC(=O)O [Example 14] | – | – |
| 0.893 nM | COc1cc(-c2nc(-c3cc(Cl)c(OCCCNC(=O)CO)c(OC)c3)no2)cc(C2CCCC2)n1 [Example 38, N-(3-(2-Chloro-4-(5-(2-cyclopentyl-6-methoxypyridin-4-yl)-1,2,4-oxadiazol-3-yl)-6-methoxyphenoxy)propyl)-2-hydroxyacetamide] | – | – |
| 0.4 nM | CCc1cc(-c2noc(-c3cc(OC)nc(C4CCCC4)c3)n2)cc(C)c1OCCCNCCC(=O)O [Example 19, 3-((3-(4-(5-(2-Cyclopentyl-6-methoxypyridin-4-yl)-1,2,4-oxadiazol-3-yl)-2-ethyl-6-methylphenoxy)propyl)amino)propanoic acid] | – | – |
| 4.23 nM | CCc1cc(-c2noc(-c3cc(OC)nc(C4CCCC4)c3)n2)cc(C)c1OCCNC(CO)CO [Example 25, 2-((2-(4-(5-(2-Cyclopentyl-6-methoxypyridin-4-yl)-1,2,4-oxadiazol-3-yl)-2-ethyl-6-methylphenoxy)ethyl)amino)propane-1,3-diol] | – | – |
| 24.7 nM | CCc1cc(-c2noc(-c3cc(OC)nc(C4CCCC4)c3)n2)cc(C)c1OCCNCCO [Example 23, 2-((2-(4-(5-(2-Cyclopentyl-6-methoxypyridin-4-yl)-1,2,4-oxadiazol-3-yl)-2-ethyl-6-methylphenoxy)ethyl)amino)ethanol] | – | – |
| 0.1 nM | CCc1cc(-c2nc(-c3cc(OC)nc(C4CCCC4)c3)no2)cc(C)c1OCCN(C)CC(=O)O [Example 56, 2-((2-(4-(3-(2-Cyclopentyl-6-methoxypyridin-4-yl)-1,2,4-oxadiazol-5-yl)-2-ethyl-6-methylphenoxy)ethyl)(methyl)amino)acetic acid] | – | – |
| 15.1 nM | CCc1cc(-c2noc(-c3cc(OC)nc(C4CCCC4)c3)n2)cc(C)c1OCCCNC(CO)CO [Example 26, 2-((3-(4-(5-(2-Cyclopentyl-6-methoxypyridin-4-yl)-1,2,4-oxadiazol-3-yl)-2-ethyl-6-methylphenoxy)propyl)amino)propane-1,3-diol] | – | – |
